“And” between values parts separate entries of the source, which are not always exact repeats. Equal entries are not always repeated.
Legend:
Conditions in all cases: incubation time: 72 h
CAL-148 [1] = experiment: normalised viability (% of control), CellTiter-Blue; higher = more viable cells (about 100 = DMSO control)
Description: (§1)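 DSRT, CellTiter-Blue viability, 72 h incubation. Signal is normalised to DMSO and benzethonium chloride controls. Value is the normalised response at dose 7.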

CAL-51 [2] = experiment: as above
Description: as §1

CAL-85-1 [3] = experiment: as above
Description: as §1

DU-4475 [4] = experiment: as above
Description: as §1

HDQ-P1 [5] = experiment: as above
Description: as §1

MDA-MB-453 [6] = experiment: as above
Description: as §1

CAL-148 [7] = experiment: as above; remark: listed apart in the source
Description: (§2)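 DSRT, CellTiter-Blue viability, 72 h incubation. Signal is normalised to DMSO and benzethonium chloride controls. Value is the normalised response at dose 9.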

CAL-51 [8] = experiment: as above; remark: listed apart in the source
Description: as §2

CAL-85-1 [9] = experiment: as above; remark: listed apart in the source
Description: as §2

DU-4475 [10] = experiment: as above; remark: listed apart in the source
Description: as §2

HDQ-P1 [11] = experiment: as above; remark: listed apart in the source
Description: as §2

MDA-MB-453 [12] = experiment: as above; remark: listed apart in the source
Description: as §2

BT-474 = experiment: normalised response (% of control), CellTiter-Glo; higher = more viable cells (100 = DMSO, 0 = benzethonium chloride kill control)
Description: (§3)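 DSRT, 72 h incubation, CellTox Green / CellTiter-Glo readout. Signal is normalised to DMSO and benzethonium chloride controls. Value is the normalised response at the highest dose.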

BT-549 = experiment: as above
Description: as §3

CAL-120 = experiment: as above
Description: as §3

CAL-148 [13] = experiment: as above
Description: as §3

CAL-51 [14] = experiment: as above
Description: as §3

DU-4475 [15] = experiment: as above
Description: as §3

HCC1143 = experiment: as above
Description: as §3

HCC1599 = experiment: as above
Description: as §3

HCC1937 = experiment: as above
Description: as §3

HDQ-P1 [16] = experiment: as above
Description: as §3

Hs578T = experiment: as above
Description: as §3

MDA-MB-231 = experiment: as above
Description: as §3

MDA-MB-436 = experiment: as above
Description: as §3

MDA-MB-453 [17] = experiment: as above
Description: as §3

MDA-MB-468 = experiment: as above
Description: as §3

MFM-223 = experiment: as above
Description: as §3

SK-BR-3 = experiment: as above
Description: as §3

## O=C1CN2Cc3c(ccc(Cl)c3Cl)N=C2N1 [Anagrelide] (1000 nM)
CAL-148 [1]
  normalised viability: 104%
CAL-51 [2]
  normalised viability: 73.6%
CAL-85-1 [3]
  normalised viability: 86.1%
DU-4475 [4]
  normalised viability: 113%
HDQ-P1 [5]
  normalised viability: 105%
MDA-MB-453 [6]
  normalised viability: 103%

## CC(=O)O[C@@]12CO[C@@H]1C[C@H](O)[C@@]1(C)C(=O)[C@H](O)C3=C(C)[C@@H](OC(=O)[C@H](O)[C@@H](NC(=O)OC(C)(C)C)c4ccccc4)C[C@@](O)([C@@H](OC(=O)c4ccccc4)[C@H]21)C3(C)C [Docetaxel] (1000 nM)
CAL-148 [7]
  normalised viability: 23.1% and 21.2%
CAL-51 [8]
  normalised viability: 16.2% and 12.2%
CAL-85-1 [9]
  normalised viability: 32.1% and 32.3%
DU-4475 [10]
  normalised viability: 11.7% and 10.5%
HDQ-P1 [11]
  normalised viability: 51.3% and 42.4%
MDA-MB-453 [12]
  normalised viability: 23.1% and 24.4%
BT-474
  normalised response: 39.3%
BT-549
  normalised response: 17.1%
CAL-120
  normalised response: 55.3%
CAL-148 [13]
  normalised response: 45.5%
CAL-51 [14]
  normalised response: 32.9%
DU-4475 [15]
  normalised response: 44%
HCC1143
  normalised response: 38.3%
HCC1599
  normalised response: 29.6%
HCC1937
  normalised response: 73.8%
HDQ-P1 [16]
  normalised response: 64.2%
Hs578T
  normalised response: 13.6%
MDA-MB-231
  normalised response: 28.5%
MDA-MB-436
  normalised response: 32.8%
MDA-MB-453 [17]
  normalised response: 44.4%
MDA-MB-468
  normalised response: 34.9%
MFM-223
  normalised response: 48.9%
SK-BR-3
  normalised response: 10.7%

## O=C1CN2Cc3c(ccc(Cl)c3Cl)N=C2N1 [Anagrelide] (10000 nM)
CAL-148 [7]
  normalised viability: 115%
CAL-51 [8]
  normalised viability: 83.8%
CAL-85-1 [9]
  normalised viability: 89.8%
DU-4475 [10]
  normalised viability: 108%
HDQ-P1 [11]
  normalised viability: 118%
MDA-MB-453 [12]
  normalised viability: 90.9%
BT-474
  normalised response: 88%
BT-549
  normalised response: 97.3%
CAL-120
  normalised response: 96.5%
CAL-148 [13]
  normalised response: 96.4%
CAL-51 [14]
  normalised response: 88%
DU-4475 [15]
  normalised response: 98.9%
HCC1143
  normalised response: 93%
HCC1599
  normalised response: 97%
HCC1937
  normalised response: 97.9%
HDQ-P1 [16]
  normalised response: 90.9%
Hs578T
  normalised response: 80.5%
MDA-MB-231
  normalised response: 99.5%
MDA-MB-436
  normalised response: 96%
MDA-MB-453 [17]
  normalised response: 100%
MDA-MB-468
  normalised response: 92%
MFM-223
  normalised response: 99.6%
SK-BR-3
  normalised response: 102%

## Oc1ncnc2[nH]ncc12 [Allopurinol] (1000 nM)
CAL-148 [1]
  normalised viability: 124%
CAL-51 [2]
  normalised viability: 91.5%
CAL-85-1 [3]
  normalised viability: 96.3%
DU-4475 [4]
  normalised viability: 109%
HDQ-P1 [5]
  normalised viability: 88%
MDA-MB-453 [6]
  normalised viability: 100%

## Cn1cnc2c(F)c(Nc3ccc(Br)cc3Cl)c(C(=O)NOCCO)cc21 [Selumetinib] (1000 nM)
CAL-148 [1]
  normalised viability: 92.8%
CAL-51 [2]
  normalised viability: 91.3%
CAL-85-1 [3]
  normalised viability: 64.8%
DU-4475 [4]
  normalised viability: 1.82%
HDQ-P1 [5]
  normalised viability: 75.2%
MDA-MB-453 [6]
  normalised viability: 104%

## CC[C@@H]1C(=O)OC[C@@H]1Cc1cncn1C [Pilocarpine] (4000 nM)
CAL-148 [1]
  normalised viability: 101%
CAL-51 [2]
  normalised viability: 108%
CAL-85-1 [3]
  normalised viability: 89.5%
DU-4475 [4]
  normalised viability: 95.5%
HDQ-P1 [5]
  normalised viability: 121%
MDA-MB-453 [6]
  normalised viability: 101%

## Cc1sc2c(c1C)C(c1ccc(Cl)cc1)=N[C@@H](CC(=O)OC(C)(C)C)c1nnc(C)n1-2 [(+)JQ1] (1000 nM)
CAL-148 [1]
  normalised viability: 56.5%
CAL-51 [2]
  normalised viability: 84.1%
CAL-85-1 [3]
  normalised viability: 56.7%
DU-4475 [4]
  normalised viability: 12.4%
HDQ-P1 [5]
  normalised viability: 106%
MDA-MB-453 [6]
  normalised viability: 21.9%

## Nc1ncn([C@@H]2O[C@H](CO)[C@@H](O)[C@H]2O)c(=O)n1 [Azacitidine] (10000 nM)
CAL-148 [7]
  normalised viability: 82.8%
CAL-51 [8]
  normalised viability: 102%
CAL-85-1 [9]
  normalised viability: 102%
DU-4475 [10]
  normalised viability: 77.7%
HDQ-P1 [11]
  normalised viability: 68.4%
MDA-MB-453 [12]
  normalised viability: 82%
BT-474
  normalised response: 71.4%
BT-549
  normalised response: 45%
CAL-120
  normalised response: 61.6%
CAL-148 [13]
  normalised response: 87.7%
CAL-51 [14]
  normalised response: 91.2%
DU-4475 [15]
  normalised response: 60.7%
HCC1143
  normalised response: 75%
HCC1599
  normalised response: 76.1%
HCC1937
  normalised response: 69.3%
HDQ-P1 [16]
  normalised response: 63%
Hs578T
  normalised response: 58.9%
MDA-MB-231
  normalised response: 68%
MDA-MB-436
  normalised response: 54.7%
MDA-MB-453 [17]
  normalised response: 102%
MDA-MB-468
  normalised response: 17%
MFM-223
  normalised response: 53.8%
SK-BR-3
  normalised response: 92.4%

## O=NN(CCCl)C(=O)NCCCl [Carmustine] (1000 nM)
CAL-148 [1]
  normalised viability: 105%
CAL-51 [2]
  normalised viability: 96.9%
CAL-85-1 [3]
  normalised viability: 88.4%
DU-4475 [4]
  normalised viability: 102%
HDQ-P1 [5]
  normalised viability: 105%
MDA-MB-453 [6]
  normalised viability: 105%

## Nc1ncn([C@@H]2O[C@H](CO)[C@@H](O)[C@H]2O)c(=O)n1 [Azacitidine] (1000 nM)
CAL-148 [1]
  normalised viability: 97.3%
CAL-51 [2]
  normalised viability: 96.7%
CAL-85-1 [3]
  normalised viability: 91.4%
DU-4475 [4]
  normalised viability: 116%
HDQ-P1 [5]
  normalised viability: 106%
MDA-MB-453 [6]
  normalised viability: 98.9%

## CC(=O)O[C@@]12CO[C@@H]1C[C@H](O)[C@@]1(C)C(=O)[C@H](O)C3=C(C)[C@@H](OC(=O)[C@H](O)[C@@H](NC(=O)OC(C)(C)C)c4ccccc4)C[C@@](O)([C@@H](OC(=O)c4ccccc4)[C@H]21)C3(C)C [Docetaxel] (100 nM)
CAL-148 [1]
  normalised viability: 22.7% and 19.8%
CAL-51 [2]
  normalised viability: 18.2% and 13.8%
CAL-85-1 [3]
  normalised viability: 32.9% and 29.5%
DU-4475 [4]
  normalised viability: 13.8% and 9.08%
HDQ-P1 [5]
  normalised viability: 34.2% and 38%
MDA-MB-453 [6]
  normalised viability: 26.2% and 23.4%

## CC(C)(C)c1cnc(CSc2cnc(NC(=O)C3CCNCC3)s2)o1 [SNS-032] (1000 nM)
CAL-148 [1]
  normalised viability: 18.8%
CAL-51 [2]
  normalised viability: 31.5%
CAL-85-1 [3]
  normalised viability: 2.84%
DU-4475 [4]
  normalised viability: 2.63%
HDQ-P1 [5]
  normalised viability: 12.6%
MDA-MB-453 [6]
  normalised viability: 11.2%
